According to article PMC5218480 (PLoS ONE, 2017):

Test system: MV-4-11 cells
Assay: Gene expression microarray analysis (Affymetrix PrimeView) and GSEA
Format: cell-based, human
Design: RFU PODN (11730768_x_at) / Fold change /veh PODN (11730768_x_at) / RFU LINC00158 (11744669_a_at) / Fold change /veh LINC00158 (11744669_a_at) / RFU DUSP10 (11751237_a_at) / Fold change /veh DUSP10 (11751237_a_at) / RFU ID3 (11757404_x_at) / Fold change /veh ID3 (11757404_x_at) / RFU PLEKHG5 (11737974_s_at) / Fold change /veh PLEKHG5 (11737974_s_at) / RFU LRRC4B (11730491_at) / Fold change /veh LRRC4B (11730491_at) / RFU GIMAP4 (11747438_a_at) / Fold change /veh GIMAP4 (11747438_a_at) / RFU KRT8 (11758183_x_at) / Fold change /veh KRT8 (11758183_x_at) / RFU CNN1 (11734310_a_at) / Fold change /veh CNN1 (11734310_a_at) / RFU VPS37D (11726825_at) / Fold change /veh VPS37D (11726825_at) / RFU C10orf10 (11716522_x_at) / Fold change /veh C10orf10 (11716522_x_at) / RFU KIR2DL2 /// KIR2DL4 /// KIR2DL5A /// KIR2DL5B /// KIR2DS1 /// KIR2DS2 /// KIR2DS3 /// KIR2DS4 /// KIR3DL3 /// KIR3DL3 /// KIR3DS1 (11738374_at) / Fold change /veh KIR2DL2 /// KIR2DL4 /// KIR2DL5A /// KIR2DL5B /// KIR2DS1 /// KIR2DS2 /// KIR2DS3 /// KIR2DS4 /// KIR3DL3 /// KIR3DL3 /// KIR3DS1 (11738374_at) / RFU C1QL1 (11718748_at) / Fold change /veh C1QL1 (11718748_at) / RFU TMPRSS4 (11747572_a_at) / Fold change /veh TMPRSS4 (11747572_a_at) / RFU HAMP (11756126_x_at) / Fold change /veh HAMP (11756126_x_at) / RFU RNFT2 (11725882_a_at) / Fold change /veh RNFT2 (11725882_a_at) / RFU NR4A2 (11747474_a_at) / Fold change /veh NR4A2 (11747474_a_at) / RFU ABCC12 (11746883_a_at) / Fold change /veh ABCC12 (11746883_a_at) / RFU TMEM136 (11760407_x_at) / Fold change /veh TMEM136 (11760407_x_at) / RFU CLDN22 /// WWC2 (11732394_at) / Fold change /veh CLDN22 /// WWC2 (11732394_at) / RFU HLA-DPB1 (11760878_x_at) / Fold change /veh HLA-DPB1 (11760878_x_at) / RFU SPINT1 (11716480_a_at) / Fold change /veh SPINT1 (11716480_a_at) / RFU GAP43 (11754022_s_at) / Fold change /veh GAP43 (11754022_s_at) / RFU A4GNT (11735810_at) / Fold change /veh A4GNT (11735810_at) / RFU PRB3 (11715151_x_at) / Fold change /veh PRB3 (11715151_x_at) / RFU TUBB4B (11761932_at) / Fold change /veh TUBB4B (11761932_at) / RFU CAPN14 (11732068_a_at) / Fold change /veh CAPN14 (11732068_a_at) / RFU TMCC2 (11721928_a_at) / Fold change /veh TMCC2 (11721928_a_at) / RFU IRGQ (11745062_a_at) / Fold change /veh IRGQ (11745062_a_at) / RFU FAM174B (11720279_a_at) / Fold change /veh FAM174B (11720279_a_at) / RFU TMPRSS4 (11748680_a_at) / Fold change /veh TMPRSS4 (11748680_a_at) / RFU FAM212B (11763350_a_at) / Fold change /veh FAM212B (11763350_a_at) / RFU PLEKHG5 (11743358_a_at) / Fold change /veh PLEKHG5 (11743358_a_at) / RFU ZSCAN30 (11745921_a_at) / Fold change /veh ZSCAN30 (11745921_a_at) / RFU CMKLR1 (11741424_a_at) / Fold change /veh CMKLR1 (11741424_a_at) / RFU LOC101060620 /// MAPK8IP1 (11723275_at) / Fold change /veh LOC101060620 /// MAPK8IP1 (11723275_at) / RFU SPTSSB (11747773_x_at) / Fold change /veh SPTSSB (11747773_x_at) / RFU PRSS12 (11739890_at) / Fold change /veh PRSS12 (11739890_at) / RFU BIN1 (11741810_x_at) / Fold change /veh BIN1 (11741810_x_at) / RFU WNT11 (11732464_a_at) / Fold change /veh WNT11 (11732464_a_at) / RFU C10orf10 (11716521_a_at) / Fold change /veh C10orf10 (11716521_a_at) / RFU C5orf56 (11738089_at) / Fold change /veh C5orf56 (11738089_at) / RFU CYB561 (11721691_x_at) / Fold change /veh CYB561 (11721691_x_at) / RFU ANKRD19P (11752326_a_at) / Fold change /veh ANKRD19P (11752326_a_at) / RFU OR2T12 /// OR2T33 /// OR2T8 (11738714_s_at) / Fold change /veh OR2T12 /// OR2T33 /// OR2T8 (11738714_s_at) / RFU VCAN (11748164_a_at) / Fold change /veh VCAN (11748164_a_at) / RFU JSRP1 (11732532_at) / Fold change /veh JSRP1 (11732532_at) / RFU KRTAP10-11 (11738290_x_at) / Fold change /veh KRTAP10-11 (11738290_x_at) / RFU MYO3A (11730013_a_at) / Fold change /veh MYO3A (11730013_a_at) / RFU EBF3 (11725865_a_at) / Fold change /veh EBF3 (11725865_a_at) / RFU CAMK2N1 (11719241_x_at) / Fold change /veh CAMK2N1 (11719241_x_at) / RFU C5orf56 (11738088_a_at) / Fold change /veh C5orf56 (11738088_a_at) / RFU OLFML3 (11715873_a_at) / Fold change /veh OLFML3 (11715873_a_at) / RFU LOC100653217 /// NTM (11731650_a_at) / Fold change /veh LOC100653217 /// NTM (11731650_a_at) / RFU MAPK11 (11762145_a_at) / Fold change /veh MAPK11 (11762145_a_at) / RFU FIZ1 (11724087_x_at) / Fold change /veh FIZ1 (11724087_x_at) / RFU OASL (11726364_x_at) / Fold change /veh OASL (11726364_x_at) / RFU SOX15 (11748057_x_at) / Fold change /veh SOX15 (11748057_x_at) / RFU CD79A (11719716_a_at) / Fold change /veh CD79A (11719716_a_at) / RFU HIST1H1D (11736915_at) / Fold change /veh HIST1H1D (11736915_at) / RFU CASKIN2 (11723855_a_at) / Fold change /veh CASKIN2 (11723855_a_at) / RFU LOC730098 (11760151_x_at) / Fold change /veh LOC730098 (11760151_x_at) / RFU OR4N2 (11742367_at) / Fold change /veh OR4N2 (11742367_at) / RFU PRRT2 (11749266_a_at) / Fold change /veh PRRT2 (11749266_a_at) / RFU SNX32 (11753110_a_at) / Fold change /veh SNX32 (11753110_a_at) / RFU CDHR5 (11726645_a_at) / Fold change /veh CDHR5 (11726645_a_at) / RFU RCAN1 (11760418_a_at) / Fold change /veh RCAN1 (11760418_a_at) / RFU FAM167A (11723789_a_at) / Fold change /veh FAM167A (11723789_a_at) / RFU FAM26E (11764081_at) / Fold change /veh FAM26E (11764081_at) / RFU ISYNA1 (11749810_s_at) / Fold change /veh ISYNA1 (11749810_s_at) / RFU ACY1 (11761880_at) / Fold change /veh ACY1 (11761880_at) / RFU 11764098_at / Fold change /veh 11764098_at / RFU SAMD14 (11745864_x_at) / Fold change /veh SAMD14 (11745864_x_at) / RFU NPB (11741838_a_at) / Fold change /veh NPB (11741838_a_at) / RFU TMPRSS6 (11731388_a_at) / Fold change /veh TMPRSS6 (11731388_a_at) / RFU KRTAP10-2 (11738614_at) / Fold change /veh KRTAP10-2 (11738614_at) / RFU ARHGAP8 /// PRR5-ARHGAP8 (11727945_x_at) / Fold change /veh ARHGAP8 /// PRR5-ARHGAP8 (11727945_x_at) / RFU KRTAP5-7 /// NADSYN1 (11734609_at) / Fold change /veh KRTAP5-7 /// NADSYN1 (11734609_at) / RFU RASL12 (11751679_a_at) / Fold change /veh RASL12 (11751679_a_at) / RFU CDKN2B (11736163_a_at) / Fold change /veh CDKN2B (11736163_a_at) / RFU PRF1 (11729649_at) / Fold change /veh PRF1 (11729649_at) / RFU, ZNF638 /// ZNF638-IT1 / Fold change vs veh, ZNF638 /// ZNF638-IT1 / RFU, PANK3 / Fold change vs veh, PANK3 / RFU, SH3YL1 / Fold change vs veh, SH3YL1 / RFU, ZEB2 / Fold change vs veh, ZEB2 / RFU, NRIP1 / Fold change vs veh, NRIP1 / RFU, PTTG1IP / Fold change vs veh, PTTG1IP / RFU, CAPN2 / Fold change vs veh, CAPN2 / RFU, MED14 / Fold change vs veh, MED14 / RFU, SNORA58 / Fold change vs veh, SNORA58 / RFU, C1orf63 / Fold change vs veh, C1orf63 / RFU, LRRFIP1 / Fold change vs veh, LRRFIP1 / RFU, NDUFAF7 / Fold change vs veh, NDUFAF7 / RFU, SLC12A2 / Fold change vs veh, SLC12A2 / RFU, IBTK / Fold change vs veh, IBTK / RFU, ESF1 / Fold change vs veh, ESF1 / Fold change vs veh, TMEM50B / RFU, TAOK1 / Fold change vs veh, TAOK1 / RFU, ACBD3 / Fold change vs veh, ACBD3 / RFU, TMA16 / Fold change vs veh, TMA16 / RFU, RWDD3 / Fold change vs veh, RWDD3 / RFU, BCAT1 / Fold change vs veh, BCAT1 / RFU, EDEM3 / Fold change vs veh, EDEM3 / RFU, TMEM33 / Fold change vs veh, TMEM33 / RFU, WDR75 / Fold change vs veh, WDR75 / RFU, AHCTF1 / Fold change vs veh, AHCTF1 / RFU, TFRC / Fold change vs veh, TFRC / RFU, ZDHHC17 / Fold change vs veh, ZDHHC17 / RFU, NOM1 / Fold change vs veh, NOM1 / RFU, ARL8B / Fold change vs veh, ARL8B / RFU, ZBTB11 / Fold change vs veh, ZBTB11 / RFU, TAMM41 / Fold change vs veh, TAMM41 / RFU, KIAA1704 /// LOC100996395 / Fold change vs veh, KIAA1704 /// LOC100996395 / RFU, ING1 / Fold change vs veh, ING1 / RFU, TRMT61B / Fold change vs veh, TRMT61B / RFU, FUBP3 / Fold change vs veh, FUBP3 / RFU, TP53 / Fold change vs veh, TP53 / RFU, TNKS2 / Fold change vs veh, TNKS2 / RFU, ZFP14 / Fold change vs veh, ZFP14 / RFU, ACTR2 / Fold change vs veh, ACTR2 / RFU, PPP3R1 / Fold change vs veh, PPP3R1 / RFU, PIK3R1 / Fold change vs veh, PIK3R1 / RFU, HNRNPA1 / Fold change vs veh, HNRNPA1 / RFU, RNF170 / Fold change vs veh, RNF170 / RFU, ZNF28 / Fold change vs veh, ZNF28 / RFU, RNGTT / Fold change vs veh, RNGTT / RFU, OGT / Fold change vs veh, OGT / RFU, BRD1 / Fold change vs veh, BRD1 / RFU, MARS / Fold change vs veh, MARS / RFU, ZNF655 / Fold change vs veh, ZNF655 / RFU, FAHD1 / Fold change vs veh, FAHD1 / RFU, BDP1 / Fold change vs veh, BDP1 / RFU, LRRCC1 / Fold change vs veh, LRRCC1 / RFU, ARID1A / Fold change vs veh, ARID1A / RFU, ZNF146 / Fold change vs veh, ZNF146 / RFU, ZNF330 / Fold change vs veh, ZNF330 / RFU, GPN3 / Fold change vs veh, GPN3 / RFU, C9orf123 / Fold change vs veh, C9orf123 / RFU, N4BP2L2 / Fold change vs veh, N4BP2L2 / RFU, ARFIP1 / Fold change vs veh, ARFIP1 / RFU, FAM179B / Fold change vs veh, FAM179B / RFU, BCL10 / Fold change vs veh, BCL10 / RFU, UHRF1BP1L / Fold change vs veh, UHRF1BP1L / RFU, BET1 / Fold change vs veh, BET1 / RFU, CNOT2 / Fold change vs veh, CNOT2 / RFU, ZNF268 / Fold change vs veh, ZNF268 / Fold change vs veh, ZNF507 / RFU, DGCR2 / Fold change vs veh, DGCR2 / RFU, WDSUB1 / Fold change vs veh, WDSUB1 / Fold change vs veh, HSP90B1 /// MIR3652 / RFU, ADSS / Fold change vs veh, ADSS / RFU, GK / Fold change vs veh, GK / RFU, ZNF148 / Fold change vs veh, ZNF148 / RFU, TAF9 / Fold change vs veh, TAF9 / RFU, SLC1A5 / Fold change vs veh, SLC1A5 / RFU, SLMO2 / Fold change vs veh, SLMO2 / RFU, ABCC4 / Fold change vs veh, ABCC4 / RFU, LOC101060439 /// RAP1B / Fold change vs veh, LOC101060439 /// RAP1B / RFU, RFX7 / Fold change vs veh, RFX7 / RFU, GTPBP10 / Fold change vs veh, GTPBP10 / RFU, CNEP1R1 / Fold change vs veh, CNEP1R1 / RFU, BIVM-ERCC5 /// ERCC5 / Fold change vs veh, BIVM-ERCC5 /// ERCC5 / RFU, ILF3 / Fold change vs veh, ILF3 / RFU 11762660_at / Fold change /veh 11762660_at / RFU VCAN (11757783_s_at) / Fold change /veh VCAN (11757783_s_at) / RFU DDX43 (11728927_at) / Fold change /veh DDX43 (11728927_at) / RFU KRT8 (11758188_x_at) / Fold change /veh KRT8 (11758188_x_at) / RFU NKD1 (11759106_at) / Fold change /veh NKD1 (11759106_at) / RFU SRD5A1 (11742802_a_at) / Fold change /veh SRD5A1 (11742802_a_at) / RFU TPSAB1 /// TPSB2 (11721975_s_at) / Fold change /veh TPSAB1 /// TPSB2 (11721975_s_at) / RFU GSTM3 (11746129_a_at) / Fold change /veh GSTM3 (11746129_a_at) / RFU IL23R (11737362_x_at) / Fold change /veh IL23R (11737362_x_at) / RFU TMEM51 (11727254_a_at) / Fold change /veh TMEM51 (11727254_a_at) / RFU PIWIL2 (11732686_x_at) / Fold change /veh PIWIL2 (11732686_x_at) / RFU ORM1 (11744905_x_at) / Fold change /veh ORM1 (11744905_x_at) / RFU CCDC152 (11743942_at) / Fold change /veh CCDC152 (11743942_at) / RFU ECM1 (11717891_a_at) / Fold change /veh ECM1 (11717891_a_at) / RFU IL23R (11748794_a_at) / Fold change /veh IL23R (11748794_a_at) / RFU TNFAIP8L3 (11732012_x_at) / Fold change /veh TNFAIP8L3 (11732012_x_at) / RFU MBOAT4 (11741988_at) / Fold change /veh MBOAT4 (11741988_at) / RFU 11764193_at / Fold change /veh 11764193_at / RFU TMEM53 (11763286_at) / Fold change /veh TMEM53 (11763286_at) / RFU MAGEB2 (11727129_at) / Fold change /veh MAGEB2 (11727129_at) / RFU TMEM200A (11744735_a_at) / Fold change /veh TMEM200A (11744735_a_at) / RFU CCDC152 (11751479_a_at) / Fold change /veh CCDC152 (11751479_a_at) / RFU FAM211A (11726209_a_at) / Fold change /veh FAM211A (11726209_a_at) / RFU RGS16 (11746705_a_at) / Fold change /veh RGS16 (11746705_a_at) / RFU VCAN (11755009_s_at) / Fold change /veh VCAN (11755009_s_at) / RFU RHOB (11743442_s_at) / Fold change /veh RHOB (11743442_s_at) / RFU RGS16 (11720943_a_at) / Fold change /veh RGS16 (11720943_a_at) / RFU RGS16 (11720944_at) / Fold change /veh RGS16 (11720944_at) / RFU, VPS4B / Fold change vs veh, VPS4B / RFU, CREB1 / Fold change vs veh, CREB1 / RFU, DNAJC13 / Fold change vs veh, DNAJC13 / RFU, GNAQ / Fold change vs veh, GNAQ / RFU, CDK5R1 / Fold change vs veh, CDK5R1 / RFU, ZRANB3 / Fold change vs veh, ZRANB3 / RFU, CUL4A / Fold change vs veh, CUL4A / RFU, CCNY / Fold change vs veh, CCNY / RFU, UFL1 / Fold change vs veh, UFL1 / RFU, COG3 / Fold change vs veh, COG3 / RFU, DIAPH2 / Fold change vs veh, DIAPH2 / RFU, SKA2 / Fold change vs veh, SKA2 / RFU, AFF3 / Fold change vs veh, AFF3 / RFU, LMF1 / Fold change vs veh, LMF1 / RFU, IPO11 / Fold change vs veh, IPO11 / RFU, DFFB / Fold change vs veh, DFFB / RFU, FOXP1 / Fold change vs veh, FOXP1 / RFU, CARD8 / Fold change vs veh, CARD8 / RFU, STRN3 / Fold change vs veh, STRN3 / RFU, ADK / Fold change vs veh, ADK / RFU, RASSF2 / Fold change vs veh, RASSF2 / RFU, WIPF1 / Fold change vs veh, WIPF1 / RFU, LARP1B / Fold change vs veh, LARP1B / RFU, RASA1 / Fold change vs veh, RASA1 / RFU, RB1 / Fold change vs veh, RB1 / RFU, PPFIA1 / Fold change vs veh, PPFIA1 / RFU, MAT2A / Fold change vs veh, MAT2A / RFU, CCT5 / Fold change vs veh, CCT5 / RFU, WDR92 / Fold change vs veh, WDR92 / RFU, CUX1 / Fold change vs veh, CUX1 / RFU, TTC7A / Fold change vs veh, TTC7A / RFU, TMEM135 / Fold change vs veh, TMEM135 / RFU, DEPTOR / Fold change vs veh, DEPTOR / RFU, CPM / Fold change vs veh, CPM / RFU, DNAJB6 / Fold change vs veh, DNAJB6 / RFU, CACNA2D3 / Fold change vs veh, CACNA2D3 / RFU, DTX4 / Fold change vs veh, DTX4 / RFU, TFCP2 / Fold change vs veh, TFCP2 / RFU, GMCL1 /// GMCL1P1 / Fold change vs veh, GMCL1 /// GMCL1P1 / RFU, AEBP2 / Fold change vs veh, AEBP2 / RFU, SNHG1 /// SNORD22 /// SNORD25 /// SNORD26 /// SNORD27 /// SNORD28 /// SNORD29 /// SNORD31 / Fold change vs veh, SNHG1 /// SNORD22 /// SNORD25 /// SNORD26 /// SNORD27 /// SNORD28 /// SNORD29 /// SNORD31 / Fold change (Aza/veh), C12orf56 (ProbeSet 11735607_a_at) / Fold change (ACY-1035/veh), C12orf56 (ProbeSet 11735607_a_at) / Fold change (Aza/veh), FGFR1OP (ProbeSet 11751329_s_at) / Fold change (ACY-1035/veh), FGFR1OP (ProbeSet 11751329_s_at) / Fold change (Aza/veh), VPS36 (ProbeSet 11739960_a_at) / Fold change (ACY-1035/veh), VPS36 (ProbeSet 11739960_a_at) / RFU SYPL1 (11715823_x_at) / Fold change /veh SYPL1 (11715823_x_at) / RFU IGFBP7 (11715501_s_at) / Fold change /veh IGFBP7 (11715501_s_at) / RFU REEP3 (11722064_at) / Fold change /veh REEP3 (11722064_at) / RFU IGLL1 (11728026_x_at) / Fold change /veh IGLL1 (11728026_x_at): dose or concentration left out as unconfirmed
Details: ProbeSet 11739263_x_at; LIST D

Nc1ccc(-c2cccs2)cc1NC(=O)c1ccc2c(c1)cc(C1CC1)n2CCN1CCOCC1 [ACY-1035]
RFU, VPS4B: 70.19 RFU
